Assay results from US20250290117A1, “MOLECULAR PHENOTYPIC ANTIMICROBIAL SUSCEPTIBILITY TESTING” (priority 2024, published 2025).

Columns and labels:
pathogen of the specimen = assay: Molecular phenotypic antimicrobial susceptibility test with direct PCR at various incubation timepoints (Table 7); assay type: cell-based
Method in brief: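 This molecular phenotypic susceptibility test gauges whether antimicrobials prevent (sensitive) or allow (resistant) pathogen growth. The cultured specimen is adjusted to 0.5 McFarland and plated against antimicrobial solutions at breakpoint concentrations alongside drug-free controls. Following incubation, cells are lysed without extraction and amplified by semi-quantitative PCR; Ct values are compared against the control wells to assign results.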

M. morganii = assay: Molecular phenotypic antimicrobial susceptibility test, specimen with two detected pathogens incubated together without isolation; assay type: cell-based, Morganella morganii; details: M. morganii in specimen with two detected pathogens (E. coli and M. morganii) incubated together; for Ct of Sensitive Breakpoint: Ct of controls (average) 19.99; for Molecular Antimicrobial Susceptibility Result: at sensitive breakpoint
Method in brief: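 Susceptibility read molecularly: growth means resistance, prevented growth sensitivity, versus antibiotic-free control wells. Co-detected pathogens stay together without isolation; after 4-6 h preincubation and PCR identification (threshold >10,000 cells/mL), inoculum adjusted to 0.5 McFarland and placed on thawed plates with each drug at its breakpoint concentration(s).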

[1] = E. coli isolate 1189, antibiotic incubation time 4 hours
[2] = E. coli isolate 1189, antibiotic incubation time 4 hours, control average Ct […]
[3] = E. coli isolate 1189, antibiotic incubation time 6 hours
[4] = E. coli isolate 1189, antibiotic incubation time 6 hours, control average Ct 16.992
[5] = E. coli isolate 1189, antibiotic incubation time 8 hours
[6] = E. coli isolate 1189, antibiotic incubation time 8 hours, control average Ct […]
[7] = E. coli isolate 1189, antibiotic incubation time 10 hours
[8] = E. coli isolate 1189, antibiotic incubation time 10 hours, control average Ct 15.995
[9] = E. coli isolate 1189, antibiotic incubation time 12 hours
[10] = E. coli isolate 1189, antibiotic incubation time 12 hours, control average Ct 15.495
[11] = E. coli isolate 1189, antibiotic incubation time 14 hours
[12] = E. coli isolate 1189, antibiotic incubation time 14 hours, control average Ct 15.826
[13] = E. coli isolate 1189, antibiotic incubation time 16 hours
[14] = E. coli isolate 1189, antibiotic incubation time 16 hours, control average Ct 14.880

**Q.** What does the source list for `CO/N=C(\C(=O)N[C@@H]1C(=O)N2C(C(=O)O)=C(CSc3nc(=O)c(=O)[nH]n3C)CS[C@H]12)c1csc(N)n1` [Ceftriaxone]?
**A.** Molecular Antimicrobial Susceptibility Result (pathogen of the specimen; [1]): Resistant; Ct at Sensitive Breakpoint (pathogen of the specimen; [2]): 16.185; Molecular Antimicrobial Susceptibility Result (pathogen of the specimen; [3]): Resistant; Ct at Sensitive Breakpoint (pathogen of the specimen; [4]): 16.838; Molecular Antimicrobial Susceptibility Result (pathogen of the specimen; [5]): Resistant; Ct at Sensitive Breakpoint (pathogen of the specimen; [6]): 17.431; Molecular Antimicrobial Susceptibility Result (pathogen of the specimen; [7]): Resistant; Ct at Sensitive Breakpoint (pathogen of the specimen; [8]): 16.347; Molecular Antimicrobial Susceptibility Result (pathogen of the specimen; [9]): Resistant; Ct at Sensitive Breakpoint (pathogen of the specimen; [10]): 16.258; Molecular Antimicrobial Susceptibility Result (pathogen of the specimen; [11]): Resistant; Ct at Sensitive Breakpoint (pathogen of the specimen; [12]): 14.724; Molecular Antimicrobial Susceptibility Result (pathogen of the specimen; [13]): Resistant; Ct at Sensitive Breakpoint (pathogen of the specimen; [14]): 15.840; Ct of Sensitive Breakpoint (M. morganii): 30.03; Molecular Antimicrobial Susceptibility Result (M. morganii): Sensitive (Antimicrobial wells with pathogen load detected below the control wells (typically >2 cycle thresholds later) may be reported as Sensitive)

**Q.** `C[C@@H](O)[C@H]1C(=O)N2C(C(=O)O)=C(S[C@@H]3CN[C@H](C(=O)N(C)C)C3)[C@H](C)[C@H]12` [Meropenem] was tested. Which “Molecular Antimicrobial Susceptibility Result” value (pathogen of the specimen; [1]) did it give?
**A.** Sensitive (Antimicrobial wells with pathogen load detected below the control wells (typically >2 cycle thresholds later) may be reported as Sensitive)

**Q.** And the “Ct at Sensitive Breakpoint” value (pathogen of the specimen; [2])?
**A.** 22.751

**Q.** And the “Molecular Antimicrobial Susceptibility Result” value (pathogen of the specimen; [3])?
**A.** Sensitive (Antimicrobial wells with pathogen load detected below the control wells (typically >2 cycle thresholds later) may be reported as Sensitive)

**Q.** What about the “Ct at Sensitive Breakpoint” value (pathogen of the specimen; [4]) of the same compound?
**A.** 22.884

**Q.** What about the “Molecular Antimicrobial Susceptibility Result” value (pathogen of the specimen; [5]) of the same compound?
**A.** Sensitive (Antimicrobial wells with pathogen load detected below the control wells (typically >2 cycle thresholds later) may be reported as Sensitive)

**Q.** And the “Ct at Sensitive Breakpoint” value (pathogen of the specimen; [6])?
**A.** 23.187

**Q.** And the “Molecular Antimicrobial Susceptibility Result” value (pathogen of the specimen; [7])?
**A.** Sensitive (Antimicrobial wells with pathogen load detected below the control wells (typically >2 cycle thresholds later) may be reported as Sensitive)

**Q.** And the “Ct at Sensitive Breakpoint” value (pathogen of the specimen; [8])?
**A.** 23.901

**Q.** What about the “Molecular Antimicrobial Susceptibility Result” value (pathogen of the specimen; [9]) of the same compound?
**A.** Sensitive (Antimicrobial wells with pathogen load detected below the control wells (typically >2 cycle thresholds later) may be reported as Sensitive)

**Q.** And the “Ct at Sensitive Breakpoint” value (pathogen of the specimen; [10])?
**A.** 26.014

**Q.** And the “Molecular Antimicrobial Susceptibility Result” value (pathogen of the specimen; [11])?
**A.** Sensitive (Antimicrobial wells with pathogen load detected below the control wells (typically >2 cycle thresholds later) may be reported as Sensitive)

**Q.** And the “Ct at Sensitive Breakpoint” value (pathogen of the specimen; [12])?
**A.** 26.211

**Q.** And the “Molecular Antimicrobial Susceptibility Result” value (pathogen of the specimen; [13])?
**A.** Sensitive (Antimicrobial wells with pathogen load detected below the control wells (typically >2 cycle thresholds later) may be reported as Sensitive)

**Q.** And the “Ct at Sensitive Breakpoint” value (pathogen of the specimen; [14])?
**A.** 27.457

**Q.** And the “Ct of Sensitive Breakpoint” value (M. morganii)?
**A.** 29.99

**Q.** What about the “Molecular Antimicrobial Susceptibility Result” value (M. morganii) of the same compound?
**A.** Sensitive (Antimicrobial wells with pathogen load detected below the control wells (typically >2 cycle thresholds later) may be reported as Sensitive)

**Q.** With Trimethoprim/Sulfamethoxazole [TMP/SMX] as the compound, how does the “Molecular Antimicrobial Susceptibility Result” value (pathogen of the specimen; [1]) read?
**A.** Sensitive (Antimicrobial wells with pathogen load detected below the control wells (typically >2 cycle thresholds later) may be reported as Sensitive)

**Q.** And the “Ct at Sensitive Breakpoint” value (pathogen of the specimen; [2])?
**A.** 24.603

**Q.** And the “Molecular Antimicrobial Susceptibility Result” value (pathogen of the specimen; [3])?
**A.** Sensitive (Antimicrobial wells with pathogen load detected below the control wells (typically >2 cycle thresholds later) may be reported as Sensitive)

**Q.** What about the “Ct at Sensitive Breakpoint” value (pathogen of the specimen; [4]) of the same compound?
**A.** 23.984

**Q.** And the “Molecular Antimicrobial Susceptibility Result” value (pathogen of the specimen; [5])?
**A.** Sensitive (Antimicrobial wells with pathogen load detected below the control wells (typically >2 cycle thresholds later) may be reported as Sensitive)

**Q.** And the “Ct at Sensitive Breakpoint” value (pathogen of the specimen; [6])?
**A.** 24.482

**Q.** And the “Molecular Antimicrobial Susceptibility Result” value (pathogen of the specimen; [7])?
**A.** Sensitive (Antimicrobial wells with pathogen load detected below the control wells (typically >2 cycle thresholds later) may be reported as Sensitive)

**Q.** What about the “Ct at Sensitive Breakpoint” value (pathogen of the specimen; [8]) of the same compound?
**A.** 24.129

**Q.** And the “Molecular Antimicrobial Susceptibility Result” value (pathogen of the specimen; [9])?
**A.** Sensitive (Antimicrobial wells with pathogen load detected below the control wells (typically >2 cycle thresholds later) may be reported as Sensitive)

**Q.** What about the “Ct at Sensitive Breakpoint” value (pathogen of the specimen; [10]) of the same compound?
**A.** 23.878

**Q.** And the “Molecular Antimicrobial Susceptibility Result” value (pathogen of the specimen; [11])?
**A.** Sensitive (Antimicrobial wells with pathogen load detected below the control wells (typically >2 cycle thresholds later) may be reported as Sensitive)

**Q.** What about the “Ct at Sensitive Breakpoint” value (pathogen of the specimen; [12]) of the same compound?
**A.** 24.017

**Q.** What about the “Molecular Antimicrobial Susceptibility Result” value (pathogen of the specimen; [13]) of the same compound?
**A.** Sensitive (Antimicrobial wells with pathogen load detected below the control wells (typically >2 cycle thresholds later) may be reported as Sensitive)

**Q.** What about the “Ct at Sensitive Breakpoint” value (pathogen of the specimen; [14]) of the same compound?
**A.** 23.552

**Q.** What about the “Ct of Sensitive Breakpoint” value (M. morganii) of the same compound?
**A.** 32.93

**Q.** What about the “Molecular Antimicrobial Susceptibility Result” value (M. morganii) of the same compound?
**A.** Sensitive (Antimicrobial wells with pathogen load detected below the control wells (typically >2 cycle thresholds later) may be reported as Sensitive)
